These results are taken from ChEMBL document CHEMBL5532720, “A Potent Solution for Tumor Growth and Angiogenesis Suppression via an ELR+CXCL-CXCR1/2 Pathway Inhibitor” (ACS Med Chem Lett, 2024).

The nature of assay [1]: Antiproliferative activity against human Cisplatin and radiotherapy resistant CAL27RR cells incubated for 48 hrs by XTT assay. The format is functional, cell-based.
Assay [2] is described as follows: Antiproliferative activity against human Sunitinib-resistant 786-R cells incubated for 48 hrs by XTT assay. The format is functional, cell-based.
For assay [3], the system named is A498. Description: Antiproliferative activity against human A498 cells incubated for 48 hrs by XTT assay. The format is functional, cell-based. The note with it: A498, 48 h.
Assay [4] can be described thus: Antiproliferative activity against human Cisplatin and radiotherapy resistant CAL33RR cells incubated for 48 hrs by XTT assay. The assay is classed as functional, cell-based.
The subject of another assay is RCC4. As to the kind of experiment: Antiproliferative activity against human RCC4 cells incubated for 48 hrs by XTT assay. The assay is classed as functional, cell-based. The note with it: RCC4, 48 h.
Another assay concerns 786-0. Description: Antiproliferative activity against human 786-0 cells incubated for 48 hrs by XTT assay. The format is functional, cell-based. The note with it: 786-0, 48 h.
Assay [5] relates to A498. Description: Inhibition of cell invasion in human A498 cells cultured as 3D spheroids at 5 uM measured after 7 days by light microscopic imaging analysis. The format is functional, cell-based. Particulars: time 7.0 day.
The next assay relates to CAL-27. Description: Antiproliferative activity against human CAL-27 cells incubated for 48 hrs by XTT assay. The format is functional, cell-based. Particulars: CAL-27, 48 h.
The next assay has as its system CAL-33. As to the kind of experiment: Antiproliferative activity against human CAL-33 cells incubated for 48 hrs by XTT assay. The assay is classed as functional, cell-based. Particulars: CAL-33, 48 h.
For assay [6], the system named is A498. Description: Inhibition of cell invasion in human A498 cells cultured as 3D spheroids at 5 uM measured after 7 days by light microscopic imaging analysis relative to control. The format is functional. The note with it: A498, 168 h, time 7 day.
Assay [7] deals with A498. As to the kind of experiment: Inhibition of CXCL8-induced cell migration in human A498 cells at 0.5 uM incubated for 24 hrs by crystal violet staining based analysis relative to control. The assay is classed as functional.

Calls of active or inactive are those of the source. The rule behind the calls is not given here. Some results are limits rather than exact numbers.

In the case of `O=C(Nc1cccc(Cl)c1)Nc1nc2ccc(-c3cccc4ccccc34)cc2s1`, the 50% inhibitory concentration (IC50) was more than 25 µM in assay [1]; 10 µM in [2]; 5 µM in the assay with A498 [3]; more than 25 µM in assay [4]; 8 µM in the assay on RCC4; 7 µM with 786-0. For the same compound, the results for the half-inhibitory concentration (IC50) in the assay with CAL-27 and with CAL-33 were more than 25 µM and 12 µM, respectively. Also, in the assay on A498 [5], the inhibition result is “inactive”.

On to `O=C(Nc1ccc(Cl)cc1)Nc1nc2ccc([N+](=O)[O-])cc2s1`, for which the 50% inhibitory concentration (IC50) in assay [1] came out at 4 µM; in assay [2], 5 µM; with A498 [3], 3 µM; in assay [4], 2 µM; in the assay with RCC4, 3 µM; with 786-0, 2 µM. Moreover, the IC50 in the assay on CAL-27 was 5 µM; with CAL-33, 2.5 µM. The compound also returned an inhibition at 5 µM with A498 [6] of more than 75%. Moreover, the inhibition at 0.5 µM with A498 [7] is more than 50%.

As for `O=C(Nc1cccc(Cl)c1)Nc1nc2ccc([N+](=O)[O-])cc2s1`, the 50% inhibitory concentration (IC50) in assay [1] came out at 2 µM; in assay [2], 2.5 µM; in assay [4] it was 3 µM; with RCC4 it was 5 µM; with CAL-27, 3 µM; with CAL-33, 2 µM. In the assay on A498 [6], this compound yielded an inhibition at 5 µM of more than 75%. This compound yielded an inhibition at 0.5 µM in the assay with A498 [7] of more than 50%.

Regarding `O=C(Nc1ccc(Br)cc1)Nc1nc2ccc([N+](=O)[O-])cc2s1`, the IC50 came to 2.5 µM in assay [1]; 5 µM in assay [2]; 2.5 µM with A498 [3]; 5 µM in assay [4]; 7 µM in the assay with RCC4; 5 µM in the assay with 786-0. For the same compound, the IC50 worked out at 5 µM in the assay with CAL-27 and 2 µM in the assay on CAL-33. This compound also yielded an inhibition at 5 µM with A498 [6] of more than 75%. In the assay on A498 [7], this compound displayed an inhibition at 0.5 µM of more than 50%.

As to `Cc1noc(C)c1-c1ccc2nc(NC(=O)Nc3cccc(Cl)c3)sc2c1`, the IC50 in assay [1] turned out to be 2.5 µM; in [2], 4 µM; with A498 [3] it was 3 µM; in assay [4], 3.5 µM; in the assay with RCC4 it was 5 µM; in the assay on 786-0, 2.5 µM. The figures for the IC50 in the assay on CAL-27 and in the assay with CAL-33 were 1 µM and 3.5 µM, respectively. In the assay on A498 [5], the inhibition entry is “Active”.

For `O=C(Nc1cccc(Cl)c1)Nc1nc2ccc(-c3cccs3)cc2s1`, the IC50 (in assay [1]; in [2]; with A498 [3]; in assay [4]; with RCC4; in the assay on 786-0) was more than 25 µM throughout. Also, the concentration for half-maximal inhibition (IC50) in the assay with CAL-27 and with CAL-33 was more than 25 µM each time.

On to `Cc1ccccc1NC(=O)Nc1nc2ccc([N+](=O)[O-])cc2s1`, for which the concentration for half-maximal inhibition (IC50) was 4 µM in [1]; 6 µM in assay [2]; 6 µM in the assay on A498 [3]; 4 µM in assay [4]; 10 µM in the assay on RCC4; 8 µM in the assay on 786-0. For the same compound, the IC50 with CAL-27 and in the assay on CAL-33 was 4 µM each time.

For `Cc1nn(C)cc1-c1ccc2nc(NC(=O)Nc3cccc(Cl)c3)sc2c1`, the IC50 in assay [1] stood at 6 µM; in assay [2], 8 µM; in the assay with A498 [3] it was 5 µM; in assay [4], 7 µM; with RCC4, 8 µM; with 786-0, 4 µM. The IC50 was determined as 7 µM with CAL-27 and 6 µM with CAL-33. The inhibition entry in the assay with A498 [5] is “Active”.

Regarding `O=C(Nc1cccc(Cl)c1)Nc1nc2ccc(-c3ccco3)cc2s1`, the IC50 (in assay [1]; in assay [2]; in the assay with A498 [3]; in assay [4]; with RCC4; in the assay with 786-0) was more than 25 µM throughout. Besides, the half-inhibitory concentration (IC50) in the assay with CAL-27 and in the assay on CAL-33 was more than 25 µM throughout.
